Results as given in US10457709B2, “Antimicrobial peptides, their variants and uses” (priority 2015, dated 2019).
Where two headings read alike, the source gives them in different places. Square brackets hold non-standard residues; d marks the D form. Peptide text beside a SMILES is read from it.

Experiments:
[1] = tested on: Enterobacter cloacae clinical strains; format: cell-based; set-up: Minimum inhibitory concentration: unit: μg/ml; details: microdilution, Muller Hinton broth-cation adjusted, 0.02% BSA, 0.2% acetic acid
Outline: (§1)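 MIC recorded as the lowest peptide level, within 0.125–128 μg/ml, that left no visible growth after 20–24 h at 37° C. Inoculum was 5.0×10^5 cfu/ml of clinical isolates. Medium was potato dextrose broth for yeasts and Mueller Hinton broth for bacteria, in a broth microdilution format.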

[2] = tested on: Proteus mirabilis clinical strains; format: cell-based; set-up: Minimum inhibitory concentration: unit: μg/ml; details: microdilution, Muller Hinton broth-cation adjusted, 0.02% BSA, 0.2% acetic acid
Outline: as §1

[3] = tested on: Serratia marcescens clinical strains; format: cell-based; set-up: Minimum inhibitory concentration: unit: μg/ml; details: microdilution, Muller Hinton broth-cation adjusted, 0.02% BSA, 0.2% acetic acid
Outline: as §1

[4] = tested on: Staphylococcus aureus clinical strains; format: cell-based; set-up: Minimum inhibitory concentration: unit: μg/ml; details: microdilution, Muller Hinton broth-cation adjusted, 0.02% BSA, 0.2% acetic acid
Outline: as §1

[5] = tested on: Streptococcus pneumoniae clinical strains; format: cell-based; set-up: Minimum inhibitory concentration: unit: μg/ml; details: microdilution, Muller Hinton broth-cation adjusted, 0.02% BSA, 0.2% acetic acid
Outline: as §1

[6] = tested on: Candida albicans clinical strains; assay: MIC, clinical yeast strains; format: cell-based; set-up: unit: μg/ml
Outline: as §1

[7] = tested on: C. glabrata clinical strains; assay: MIC, clinical yeast strains; format: cell-based, Candida glabrata; set-up: unit: µg/ml
Outline: as §1

[8] = tested on: C. parapsilosis clinical strains; assay: MIC, clinical yeast strains; format: cell-based, Candida parapsilosis; set-up: unit: µg/ml
Outline: as §1

[9] = tested on: C. quillermondiae clinical strains; assay: MIC, clinical yeast strains; format: cell-based, Candida quillermondiae; set-up: unit: μg/ml; details: C. quillermondiae clinical yeast strain 1
Outline: as §1

[10] = tested on: Escherichia coli clinical strains; format: cell-based; details: microdilution, Muller Hinton broth-cation adjusted, 0.02% BSA, 0.2% acetic acid
Outline: as §1

[11] = tested on: Klebsiella pneumoniae clinical strains; format: cell-based; details: microdilution, Muller Hinton broth-cation adjusted, 0.02% BSA, 0.2% acetic acid
Outline: as §1

[12] = tested on: Pseudomonas aeruginosa clinical strains; format: cell-based; details: microdilution, Muller Hinton broth-cation adjusted, 0.02% BSA, 0.2% acetic acid
Outline: as §1

Compound `CC(C)C[C@@H](NC(=O)[C@@H](Cc1c[nH]c2ccccc12)NC(=O)[C@@H](Cc1ccccc1)NC(=O)[C@@H](Cc1c[nH]c2ccccc12)NC(=O)[C@@H](CCCCN)NC(=O)[C@@H](CCCNC(=N)N)NC(=O)[C@H](N)Cc1c[nH]c2ccccc12)C(=O)N[C@H](Cc1ccccc1)C(=O)N[C@H](CCCCN)C(=O)N[C@H](CCCCN)C(=O)N[C@H](CCCNC(=N)N)C(=O)O` [Chain309D] (H-[dW][dR][dK][dW][dF][dW][dL][dF][dK][dK][dR]-OH) has a Minimum inhibitory concentration ([1]; Enterobacter cloacae clinical strain 1) greater than 128, a Minimum inhibitory concentration ([1]; Enterobacter cloacae clinical strain 2) of 128 and a Minimum inhibitory concentration ([1]; Enterobacter cloacae clinical strain 3) of 64. It also gave a Minimum inhibitory concentration ([1]; Enterobacter cloacae clinical strain 4) of 64, a Minimum inhibitory concentration ([1]; Enterobacter cloacae clinical strain 5) of 32 and a Minimum inhibitory concentration ([2]; Proteus mirabilis clinical strain 1) greater than 128. It also gave a Minimum inhibitory concentration ([2]; Proteus mirabilis clinical strain 2) greater than 128, a Minimum inhibitory concentration ([2]; Proteus mirabilis clinical strain 3) greater than 128 and a Minimum inhibitory concentration ([2]; Proteus mirabilis clinical strain 4) greater than 128. It also gave a Minimum inhibitory concentration ([2]; Proteus mirabilis clinical strain 5) greater than 128, a Minimum inhibitory concentration ([3]; Serratia marcescens clinical strain 1) greater than 128 and a Minimum inhibitory concentration ([3]; Serratia marcescens clinical strain 2) greater than 128. It also gave a Minimum inhibitory concentration ([3]; Serratia marcescens clinical strain 3) greater than 128, a Minimum inhibitory concentration ([3]; Serratia marcescens clinical strain 4) greater than 128 and a Minimum inhibitory concentration ([3]; Serratia marcescens clinical strain 5) greater than 128. For the same compound, the Minimum inhibitory concentration ([4]; Staphylococcus aureus clinical strain 1) was 8, the Minimum inhibitory concentration ([4]; Staphylococcus aureus clinical strain 2) was 16 and the Minimum inhibitory concentration ([4]; Staphylococcus aureus clinical strain 3) was 8. The Minimum inhibitory concentration ([4]; Staphylococcus aureus clinical strain 4) was 8, the Minimum inhibitory concentration ([4]; Staphylococcus aureus clinical strain 5) was 8 and the Minimum inhibitory concentration ([5]; Streptococcus pneumoniae clinical strain 1) was 64. The Minimum inhibitory concentration ([5]; Streptococcus pneumoniae clinical strain 2) was 64, the Minimum inhibitory concentration ([5]; Streptococcus pneumoniae clinical strain 3) was 64 and the Minimum inhibitory concentration ([5]; Streptococcus pneumoniae clinical strain 4) was 64. The Minimum inhibitory concentration ([5]; Streptococcus pneumoniae clinical strain 5) was 64, the Minimum inhibitory concentration ([6]; Candida albicans clinical yeast strain 1) was 32 and the Minimum inhibitory concentration ([6]; Candida albicans clinical yeast strain 2) was 32. It also gave a Minimum inhibitory concentration ([6]; Candida albicans clinical yeast strain 3) of 16, a Minimum inhibitory concentration ([6]; Candida albicans clinical yeast strain 4) of 16 and a Minimum inhibitory concentration ([6]; Candida albicans clinical yeast strain 5) of 32. The Minimum inhibitory concentration ([7]; C. glabrata clinical yeast strain 1) was 32, the Minimum inhibitory concentration ([7]; C. glabrata clinical yeast strain 2) was 64 and the Minimum inhibitory concentration ([7]; C. glabrata clinical yeast strain 3) was 4. For the same compound, the Minimum inhibitory concentration ([7]; C. glabrata clinical yeast strain 4) was 128, the Minimum inhibitory concentration ([8]; C. parapsilosis clinical yeast strain 1) was 64 and the Minimum inhibitory concentration ([8]; C. parapsilosis clinical yeast strain 2) was 64. The Minimum inhibitory concentration ([8]; C. parapsilosis clinical yeast strain 3) was 32, the Minimum inhibitory concentration ([8]; C. parapsilosis clinical yeast strain 4) was 16 and the Minimum inhibitory concentration [9] was 8. The Minimum inhibitory concentration ([10]; Escherichia coli clinical strain 1) was 0.5, the Minimum inhibitory concentration ([10]; Escherichia coli clinical strain 2) was 32 and the Minimum inhibitory concentration ([10]; Escherichia coli clinical strain 3) was 16. It also gave a Minimum inhibitory concentration ([10]; Escherichia coli clinical strain 4) of 32, a Minimum inhibitory concentration ([10]; Escherichia coli clinical strain 5) of 16 and a Minimum inhibitory concentration ([11]; Klebsiella pneumoniae clinical strain 1) of 128. It also gave a Minimum inhibitory concentration ([11]; Klebsiella pneumoniae clinical strain 2) of 32, a Minimum inhibitory concentration ([11]; Klebsiella pneumoniae clinical strain 3) greater than 128 and a Minimum inhibitory concentration ([11]; Klebsiella pneumoniae clinical strain 4) of 32. The Minimum inhibitory concentration ([11]; Klebsiella pneumoniae clinical strain 5) was 128, the Minimum inhibitory concentration ([12]; Pseudomonas aeruginosa clinical strain 1) was 16 and the Minimum inhibitory concentration ([12]; Pseudomonas aeruginosa clinical strain 2) was 32. It also gave a Minimum inhibitory concentration ([12]; Pseudomonas aeruginosa clinical strain 3) of 16, a Minimum inhibitory concentration ([12]; Pseudomonas aeruginosa clinical strain 4) of 32 and a Minimum inhibitory concentration ([12]; Pseudomonas aeruginosa clinical strain 5) of 8.
